Test results reported in EP0326936A2, “Use of 2-(phenyl-amino)-2-imidazolines in the application of shock therapy” (BOEHRINGER INGELHEIM KG, priority 1988, dated 1989).

Legend:
hämorrhagischen Schock [1] = test: Second shock model: two-day observation phase, no preparation of the M. cremaster; format: in vivo; conditions: for Überlebende: number of survivors, N=15 per compound, Kontrolle 12 of 40
Source text: (§1) Die Eignung von Alinidin und anderen Verbindungen der allgemeinen Formel I zur erfindungsgemäßen Anwendung bei der Schocktherapie wurde in tierexperimentellen Untersuchungen an einem Cremaster-Modell bestätigt. Dieses Modell stellt eine etablierte Methode dar, (S. Hergenröder "Mikrozirkulation im hämorrhagischen Schock", Diplomarbeit am Fachbereich Biologie der Joh.-Gutenberg-Universität, Mainz 1987). An diesem Modell werden Einflüsse auf den systemischen Blutdruck, die Herzfrequenz, den daraus errechneten Schockindex sowie wichtige mikrozirkulatorische Parameter, wie Arteriolendurchmesser, die Eryhthrozytenfließgeschwindigkeit und die daraus errechnete Mikroperfusion (Organdurchblutung) und die Überlebensrate bestimmt. Der Versuchsablauf besteht aus einer präparativen Kontrollphase, gefolgt von einer spontanen Entblutung mit einem raschen Blutdruckabfall auf 25 mm Hg, einer isovolämischen intravenösen 10-minütigen Infusion mit physiologischer NaCl-Lösung (Kontrolltiere) bzw. physiologischer NaCl-Lösung mit darin gelösten Wirkstoffen und einer abschließenden Nachbeobachtungsphase (60 - 120 Minuten). Das zweite Modell unterscheidet sich durch eine zweitägige Nachbeobachtungsphase ohne Präparation des M. cremaster.

hämorrhagischen Schock [2] = test: Cremaster model of haemorrhagic shock (bleeding to 25 mm Hg, 10-minute isovolaemic i.v. infusion, 60-120 min observation); format: in vivo; conditions: Alinidin 1 mg/kg, N=6
Source text: as §1, with “cremaster. […]” for “cremaster.”

| SMILES | Überlebende (hämorrhagischen Schock [1]) | Überlebensrate (hämorrhagischen Schock [2]; NaCl control group 4 of 20 animals surviving after 60 minutes) [%] | systemische, insbesondere mikrozirkulatorische Parameter (hämorrhagischen Schock [2]; effects in NaCl control group small and short-lived) | überlebten (Tiere) (hämorrhagischen Schock [1]; survivors out of 15 pretreated animals) |
| --- | --- | --- | --- | --- |
| CC#CCN(C1=NCCN1)c1c(Cl)cccc1Cl [B, 2-[N-2,6-Dichlorphenyl-N-2-butinylamino]imidazolin-(2)] | 10 | – | – | – |
| C=CCN(C1=NCCN1)c1c(Cl)cccc1Cl [C, 2-[N-2,6-Dichlorphenyl-N-allylamino]imidazolin-(2)] | 13 | 100 | Erholung | 13 |
| CCc1cccc(CC)c1N=C1NCCN1 [A, 2-[2,6-Diethylphenylimino]imidazolidin] | 10 | – | – | – |
